Here are results for four compounds from ChEMBL document CHEMBL1140181, “Tyrianthinic acids from Ipomoea tyrianthina and their antimycobacterial activity, cytotoxicity, and effects on the central nervous system” (2008).

≈ marks a conversion by molar mass, not a printed value. Calls of active or inactive are those of the source. No cut-off for these calls is given here. A value given as a limit tells only on which side of the number the result lay.

Assay [1] can be described thus: Cytotoxicity against human UISO-SQC-1 cells. Type of assay: functional. The following applies: UISO-SQC1, read-out: ED50 (the source's name).
For assay [2], the system named is Mus musculus. Nature of the assay: Anticonvulsant activity in mouse assessed as effect on pentobarbital-induced increase in hypnosis latency at 10 mg/kg, ip. It is filed as functional, organism-based. Also on record: dose 10 mg/kg.
Assay [3] concerns Mus musculus. Nature of the assay: Anticonvulsant activity in mouse assessed as protection of pentylenetetrazole-induced seizure at 40 mg/kg, ip. Type of assay: functional. The following applies: route intraperitoneal.
For assay [4], the system named is HCT-15. Nature of the assay: Cytotoxicity against human HCT15 cells. It is filed as functional. The following applies: read-out: ED50 (the source's name).
Assay [5] relates to KB. Kind of assay: Cytotoxicity against human KB cells. It is filed as functional. The following applies: read-out: ED50 (the source's name).
The subject of assay [6] is OVCAR-5. Nature of the assay: Cytotoxicity against human OVCAR5 cells. Type of assay: functional. The following applies: read-out: ED50 (the source's name).
Assay [7] deals with Mycobacterium tuberculosis. Kind of assay: Antimicrobial activity against Mycobacterium tuberculosis H37Rv ATTC 27294 by alamar blue assay. Type of assay: functional.
The species named for assay [8] is Mus musculus. Kind of assay: Increase in GABA level in mouse brain at 4 ug/mL after 90 seconds. It is filed as functional, organism-based.

For `C/C=C(\C)C(=O)O[C@H]1[C@H](O)[C@@H](O)[C@H](O[C@@H]2[C@@H](O)[C@@H](OC(=O)C(C)CC)[C@H](O[C@H]3[C@H](O[C@H]4[C@H](O[C@H](CCCCC)CCCCCCCCCC(=O)O)O[C@H](C)[C@@H](O)[C@@H]4O)O[C@H](CO)[C@@H](O)[C@@H]3O)O[C@H]2C)O[C@@H]1C` (stereo not given in full) [THYRIANTHINIC ACID II], the EC50 in assay [1] was greater than 5 µg/mL; in assay [4], greater than 5 µg/mL; in assay [5] it was 2.8 µg/mL (≈ 2.69 µM); in assay [6], greater than 5 µg/mL. Besides, the outcome in assay [2] was Active. For the same compound, in assay [3], the Activity worked out at 70%. This compound returned an MIC in assay [7] of 25 µg/mL (≈ 24.1 µM).
For `CCCCCC1CCCCCCCCCC(=O)O[C@H]2[C@@H](OC(=O)CC)[C@H](O[C@H]3[C@H](O[C@H]4[C@H](O1)O[C@H](C)[C@H](O)[C@H]4O)O[C@H](CO)[C@H](O)[C@H]3O)O[C@H](C)[C@H]2O[C@H]1O[C@H](C)[C@H](O)[C@@H](O)[C@H]1O` (stereo not given in full) [TYRIANTHIN 9], the EC50 was greater than 5 µg/mL in assay [1], greater than 5 µg/mL in assay [4], 2.5 µg/mL (≈ 2.74 µM) in assay [5] and greater than 5 µg/mL in assay [6]. Moreover, the outcome in assay [2] and in assay [8] was Active. Moreover, the Activity in assay [3] worked out at 70%. In addition, in assay [7], the MIC was determined as 25 µg/mL (≈ 27.4 µM).
Take `C/C=C(\C)C(=O)O[C@H]1[C@@H]2O[C@H]3[C@H](O[C@H]4[C@H](OC(CCCCC)CCCCCCCCCC(=O)O[C@@H]1[C@H](O[C@H]1O[C@H](C)[C@H](O)[C@@H](O)[C@H]1O)[C@@H](C)O2)O[C@H](C)[C@H](O)[C@H]4O)O[C@H](CO)[C@H](O)[C@H]3O` (stereo not given in full) [TYRIANTHIN 8]: the EC50 in assay [1] was greater than 5 µg/mL; in assay [4] it was greater than 5 µg/mL; in assay [5], 2.2 µg/mL (≈ 2.35 µM); in assay [6] it was greater than 5 µg/mL. Moreover, the result in assay [2] and in assay [8] was Active. In addition, the Activity in assay [3] is on record as 70%. In assay [7], this compound returned an MIC of 25 µg/mL (≈ 26.7 µM).
Turning to `CCCCC[C@H](CCCCCCCCCC(=O)O)O[C@@H]1O[C@H](C)[C@@H](O)[C@H](O)[C@H]1O[C@@H]1O[C@H](CO)[C@@H](O)[C@H](O)[C@H]1O[C@@H]1O[C@@H](C)[C@H](O[C@@H]2O[C@H](C)[C@@H](OC(=O)C(C)C(C)O)[C@H](O)[C@H]2O)[C@@H](O)[C@H]1OC(=O)C(C)CC` (stereo not given in full) [THYRIANTHINIC ACID I], the EC50 in assay [1] was greater than 5 µg/mL; in assay [4], greater than 5 µg/mL; in assay [5], 2.6 µg/mL (≈ 2.46 µM); in assay [6], greater than 5 µg/mL. Further, in assay [2], the outcome was Active. The Activity in assay [3] was determined as 70%. Moreover, in assay [7], the minimal inhibitory concentration (MIC) was 25 µg/mL (≈ 23.6 µM).
